Measurements as given in PubChem BioAssay AID330 (DTP/NCI, 2004).
Where “and” joins values, the source holds several entries; their conditions need not be identical. Equal entries are not always repeated. Inconclusive results and toxic doses are left out. Rule for the calls: active = survival T/C of 150% or more; inactive = T/C below 125% in these data.

Tested on: P388 leukemia ip, CD2F1 mice, survival T/C
Assay: NCI In Vivo Anticancer Drug Screen. Data for tumor model P388 Leukemia (intraperitoneal) in CD2F1 (CDF1) mice
Settings: endpoint: median survival time, higher = longer survival
How it was run: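 Mice carrying the transplanted tumor received test compound or vehicle. Survival was recorded in each group, and the value is the treated-group measurement divided by that of the vehicle-treated control group.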

[1] = dose: 6.25 mg/kg/injection, schedule: Q01DX009 (ip), vehicle: saline
[2] = dose: 12.5 mg/kg/injection, schedule: Q01DX009 (ip), vehicle: saline
[3] = dose: 25.0 mg/kg/injection, schedule: Q01DX009 (ip), vehicle: saline
[4] = dose: 50.0 mg/kg/injection, schedule: Q01DX009 (ip), vehicle: saline
[5] = dose: 100.0 mg/kg/injection, schedule: Q01DX009 (ip), vehicle: saline
[6] = dose: 200.0 mg/kg/injection, schedule: Q01DX009 (ip), vehicle: saline
[7] = dose: 50.0 mg/kg/injection, schedule: Q01DX009 (ip), vehicle: saline with Tween-80
[8] = dose: 100.0 mg/kg/injection, schedule: Q01DX009 (ip), vehicle: saline with Tween-80
[9] = dose: 200.0 mg/kg/injection, schedule: Q01DX009 (ip), vehicle: saline with Tween-80
[10] = dose: 50.0 mg/kg/injection, schedule: Q01DX009 (ip), vehicle: Klucel (hydroxypropylcellulose) (HPC)
[11] = dose: 60.0 mg/kg/injection, schedule: Q01DX005 (ip), vehicle: saline with Tween-80
[12] = dose: 120.0 mg/kg/injection, schedule: Q01DX005 (ip), vehicle: saline with Tween-80
[13] = dose: 50.0 mg/kg/injection, schedule: Q01DX001 (ip), vehicle: Klucel (hydroxypropylcellulose) (HPC)
[14] = dose: 100.0 mg/kg/injection, schedule: Q01DX001 (ip), vehicle: Klucel (hydroxypropylcellulose) (HPC)
[15] = dose: 200.0 mg/kg/injection, schedule: Q01DX001 (ip), vehicle: Klucel (hydroxypropylcellulose) (HPC)

Measured: T/C

O=C(O)CP(=O)(O)O
inactive: dose: 4.0 mg/kg/injection, schedule: Q01DX009 (ip), vehicle: saline 94 % of control | [1] 100 % of control | dose: 8.0 mg/kg/injection, schedule: Q01DX009 (ip), vehicle: saline 99 % of control | [2] 101 % of control | dose: 16.0 mg/kg/injection, schedule: Q01DX009 (ip), vehicle: saline 91 % of control | [3] 106 % of control | dose: 32.0 mg/kg/injection, schedule: Q01DX009 (ip), vehicle: saline 100 % of control | [4] 103 % of control | dose: 64.0 mg/kg/injection, schedule: Q01DX009 (ip), vehicle: saline 102 % of control | [5] 103 % of control | dose: 128.0 mg/kg/injection, schedule: Q01DX009 (ip), vehicle: saline 94 % of control | [6] 106 % of control | dose: 400.0 mg/kg/injection, schedule: Q01DX009 (ip), vehicle: saline 101 % of control | dose: 800.0 mg/kg/injection, schedule: Q01DX009 (ip), vehicle: saline 106 % of control

C/C1=C\CCC(C)C2CCC(C)(O2)C(O)C(O)c2c(C)coc2C1 (stereo not drawn)
inactive: dose: 4.0 mg/kg/injection, schedule: Q01DX009 (ip), vehicle: Klucel (hydroxypropylcellulose) (HPC) 100 % of control | dose: 8.0 mg/kg/injection, schedule: Q01DX009 (ip), vehicle: Klucel (hydroxypropylcellulose) (HPC) 105 % of control | dose: 16.0 mg/kg/injection, schedule: Q01DX009 (ip), vehicle: Klucel (hydroxypropylcellulose) (HPC) 100 % of control | dose: 32.0 mg/kg/injection, schedule: Q01DX009 (ip), vehicle: Klucel (hydroxypropylcellulose) (HPC) 94 % of control

C=CCN(N=Nc1ccc(Cl)cc1)c1ccc(Cl)cc1
inactive: dose: 25.0 mg/kg/injection, schedule: Q01DX009 (ip), vehicle: saline with Tween-80 104 % of control and 91 % of control | [7] 107 % of control and 117 % of control | [8] 108 % of control and 111 % of control | [9] 110 % of control and 117 % of control and 118 % of control

Cc1cc2cc(C3CCNCC3)oc2cc1C
inactive: dose: 12.5 mg/kg/injection, schedule: Q01DX009 (ip), vehicle: Klucel (hydroxypropylcellulose) (HPC) 100 % of control | dose: 25.0 mg/kg/injection, schedule: Q01DX009 (ip), vehicle: Klucel (hydroxypropylcellulose) (HPC) 100 % of control and 109 % of control | [10] 107 % of control and 109 % of control and 119 % of control

O=C(NC(CCS(=O)(=O)NCc1ccc(S(=O)(=O)F)cc1)C(=O)OCc1ccccc1)OCc1ccccc1 (stereo not drawn)
inactive: dose: 12.5 mg/kg/injection, schedule: Q01DX009 (ip), vehicle: other 90 % of control | dose: 25.0 mg/kg/injection, schedule: Q01DX009 (ip), vehicle: other 89 % of control | dose: 100.0 mg/kg/injection, schedule: Q01DX009 (ip), vehicle: other 102 % of control | dose: 200.0 mg/kg/injection, schedule: Q01DX009 (ip), vehicle: other 98 % of control

CC(/C=N/NC1=NCCN1)=N/NC1=NCCN1
inactive: dose: 50.0 mg/kg/injection, schedule: Q01DX005 (ip), vehicle: saline 102 % of control | dose: 100.0 mg/kg/injection, schedule: Q01DX005 (ip), vehicle: saline 98 % of control | dose: 200.0 mg/kg/injection, schedule: Q01DX005 (ip), vehicle: saline 99 % of control

Nc1nc2ncnc(N)c2nc1-c1ccc(N(CCO)CCO)cc1
inactive: dose: 60.0 mg/kg/injection, schedule: Q01DX005 (ip), vehicle: Klucel (hydroxypropylcellulose) (HPC) 91 % of control | dose: 120.0 mg/kg/injection, schedule: Q01DX005 (ip), vehicle: Klucel (hydroxypropylcellulose) (HPC) 90 % of control | dose: 240.0 mg/kg/injection, schedule: Q01DX005 (ip), vehicle: Klucel (hydroxypropylcellulose) (HPC) 91 % of control

COc1ccc2c(c1OC)[C@]13CCCC[C@@H]1[C@H](C2)N(C)CC3
inactive: dose: 12.5 mg/kg/injection, schedule: Q04DX003 (ip), vehicle: saline 101 % of control | dose: 25.0 mg/kg/injection, schedule: Q04DX003 (ip), vehicle: saline 100 % of control | dose: 50.0 mg/kg/injection, schedule: Q04DX003 (ip), vehicle: saline 100 % of control

c1ccc2cc3n[se]nc3cc2c1
inactive: [11] 100 % of control | [12] 90 % of control

COC1=Cc2c(oc3c(C(C)(C)C)cc(OC)cc23)OC(C(C)(C)C)=C1
inactive: [4] 104 % of control | [5] 100 % of control | [6] 100 % of control

CC1=C(C)C2C3C(=O)NC(=O)C3C1C1C3C(=O)NC(=O)C3C21 (stereo not drawn)
inactive: dose: 60.0 mg/kg/injection, schedule: Q01DX005 (ip), vehicle: saline 101 % of control | dose: 120.0 mg/kg/injection, schedule: Q01DX005 (ip), vehicle: saline 101 % of control | dose: 240.0 mg/kg/injection, schedule: Q01DX005 (ip), vehicle: saline 100 % of control

CC(C)CC(NC(=O)OC(C)(C)C)C(=O)NC(Cc1c[nH]c2ccccc12)C(=O)NN (stereo not drawn)
inactive: [3] 87 % of control | [4] 94 % of control | [5] 92 % of control | [6] 92 % of control

O=C1c2ccccc2C(=O)N1SN1C(=O)c2ccccc2C1=O
inactive: [10] 110 % of control | dose: 100.0 mg/kg/injection, schedule: Q01DX009 (ip), vehicle: Klucel (hydroxypropylcellulose) (HPC) 109 % of control | dose: 200.0 mg/kg/injection, schedule: Q01DX009 (ip), vehicle: Klucel (hydroxypropylcellulose) (HPC) 102 % of control | dose: 400.0 mg/kg/injection, schedule: Q01DX009 (ip), vehicle: Klucel (hydroxypropylcellulose) (HPC) 109 % of control

CCc1nc(N)nc(N)c1-c1ccc(OC)c(N=[N+]=[N-])c1
inactive: [11] 97 % of control | [12] 100 % of control | dose: 240.0 mg/kg/injection, schedule: Q01DX005 (ip), vehicle: saline with Tween-80 117 % of control

OCC(F)(F)C(F)(F)C(F)(F)CO
inactive: dose: 100.0 mg/kg/injection, schedule: Q04DX003 (ip), vehicle: saline 100 % of control | dose: 200.0 mg/kg/injection, schedule: Q04DX003 (ip), vehicle: saline 100 % of control | dose: 400.0 mg/kg/injection, schedule: Q04DX003 (ip), vehicle: saline 100 % of control

C=C1C(=O)OC2CC3(C)OC3CC(O)/C(C)=C/C(OC(=O)C(C)C)C12 (stereo not drawn)
inactive: [1] 110 % of control | [2] 112 % of control | [3] 121 % of control

CCOC(=O)[C]1([Pb]([CH3])([CH3])[CH3])N=NC(C(=O)OC)=C1C(=O)OC (stereo not drawn)
inactive: dose: 0.78 mg/kg/injection, schedule: Q01DX009 (ip), vehicle: saline 89 % of control | dose: 1.56 mg/kg/injection, schedule: Q01DX009 (ip), vehicle: saline 90 % of control | dose: 3.12 mg/kg/injection, schedule: Q01DX009 (ip), vehicle: saline 90 % of control

CC(C)(C)/[N+]([O-])=C/C=C\C=C\C=O
inactive: [13] 116 % of control | [14] 120 % of control | [15] 122 % of control

CCC(CC)C1NC(C(CC)CC)N2C(C(CC)CC)N12 (stereo not drawn)
inactive: [13] 103 % of control | [14] 104 % of control | [15] 101 % of control

CC1CN(C(=O)Nc2ccc([N+](=O)[O-])cc2)CC(C)O1 (stereo not drawn)
inactive: [7] 96 % of control | [8] 87 % of control | [9] 89 % of control

O=[N+]([O-])c1ccc(Sc2ncccn2)c([N+](=O)[O-])c1
inactive: dose: 50.0 mg/kg/injection, schedule: Q01DX009 (ip), vehicle: suspension in saline 103 % of control | dose: 100.0 mg/kg/injection, schedule: Q01DX009 (ip), vehicle: suspension in saline 88 % of control | dose: 200.0 mg/kg/injection, schedule: Q01DX009 (ip), vehicle: suspension in saline 91 % of control
